Results on one compound are retold here after patent US10029017B2, “Pretargeted activatable cell penetrating peptide with intracellularly releasable prodrug” (The Regents of the University of California, priority 2013, dated 2018).

This test relates to MDA-MB-231 orthotopic xenografts. The test is described as follows: chemotherapy of MDA-MB-231 orthotopic xenografts: tumor volume, regression, survival. It counts as in vivo, mice. The following applies: 0.32 mg/kg equivalents of MMAE, equimolar free MMAE. The source says:
A) Tumor growth curve obtained from MDA-MB-231 bilateral tumor bearing mice that were either intravenously injected with 6.5 nanomoles of MMAE (red line), cRAD-PEG6-MMAE (green line), cRGD-MMP-MMAE (dark blue) or no injection (no treatment, light blue).
Monomethyl auristatin E (MMAE), a potent chemotherapeutic inhibitor of tubulin polymerization, was conjugated to an ACPP via a peptide linker, Val-Cit-(p-amido)benzyloxycarbonyl, which is cleavable by cathepsin B, an endolysosomal protease. Mice harboring MDA-MB-231 orthotopic xenografts were dosed with cRGD-ACPP-MMAE at 0.2 mg/kg equivalents MMAE (6.5 nanomoles peptide) every three days for a total of four doses and tumor volumes were measured at regular intervals. […] When the dose was increased to 0.32 mg/kg equivalents of MMAE, the dual targeted peptide caused 4 out of 8 tumors to regress completely, compared to 2 out of 8 for equimolar free MMAE. The ACPPs caused no weight loss or gross toxicity. […] Animal weights are illustrated in FIGS. 7, 9, and 11.

Non-standard residues stand in square brackets, D forms with d. Residues, ends and D or L forms follow the SMILES beside them. *: point of attachment. Dolaproine = CO[C@@H]([C@@H]1CCCN1)[C@@H](C)C(=O)O; Dil = CC[C@H](C)[C@H](NC)[C@@H](CC(=O)O)OC; X1 = C[C@@H](N*)[C@@H](O)c1ccccc1; NMeV = CN[C@H](C(=O)O)C(C)C

For the compound `CC[C@H](C)[C@@H]([C@@H](CC(=O)N1CCC[C@H]1[C@H](OC)[C@@H](C)C(=O)N[C@H](C)[C@@H](O)c1ccccc1)OC)N(C)C(=O)[C@@H](NC(=O)[C@@H](NC)C(C)C)C(C)C` [MMAE, Monomethyl auristatin E] (H-[NMeV]V[Dil][Dolaproine]-X1), the “tumors that regressed completely” value is 2 out of 8.
